# Source: patent publication US8748417B2, “Amino-pyrrolidine-azetidine diamides as monoacylglycerol lipase inhibitors” (Janssen Pharmaceutica, NV, priority 2010, dated 2014)
# Residue numbers refer to the chain shown, from its start.
# Assays:
# [1] = tested on: MGL (rat brain homogenate); assay: 2-AG accumulation assay in rat brain homogenate; assay type: biochemical; conditions: compound 1 μM, percent of vehicle 2-AG accumulation
# How it was run: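 Rat brain homogenate was incubated with compound for 15 min at 37° C., after which CaCl2 was added to a final concentration of 10 mM and incubation continued for 15 min at 37° C. in 5 mL total. Reactions were stopped with 6 mL of 2:1 chloroform/methanol, and 2-AG accumulated in the organic phase was quantified by HPLC/MS.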
# [2] = molecular target: T1, purified mutant MGL (mut-MGLL 11-313 L179S L186S) (Homo sapiens, UniProt Q99685, L169S/L176S); assay: MGL enzyme activity assay (4MU-B cleavage), mutant MGL; assay type: biochemical; conditions: mutant MGL 5 nM, 4MU-B 10 μM, 37° C.; read-out: MGL mutant inh IC50
# T1 construct: purified mutant MGL (mut-MGLL 11-313 L179S L186S)
# T1 sequence (Q99685 1-303 L169S/L176S): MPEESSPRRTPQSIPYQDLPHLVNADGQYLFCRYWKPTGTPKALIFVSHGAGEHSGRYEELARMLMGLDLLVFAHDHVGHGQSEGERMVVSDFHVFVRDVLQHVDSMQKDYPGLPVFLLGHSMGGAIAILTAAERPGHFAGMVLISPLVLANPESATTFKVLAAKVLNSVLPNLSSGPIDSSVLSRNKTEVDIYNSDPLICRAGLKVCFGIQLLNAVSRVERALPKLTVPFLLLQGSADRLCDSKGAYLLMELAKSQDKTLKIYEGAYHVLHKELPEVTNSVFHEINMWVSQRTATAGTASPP
# How it was run: (§1)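 Enzyme in 20 mM PIPES pH 7.0, 150 mM NaCl, 0.001% Tween 20 with 4MU-B at 10 μM final and MGL at 5 nM final; compounds 17 to 0.0003 μM final, enzyme added last. Fluorescence (ex 335/em 440 nm) followed at 37° C for 5 min; IC50 from fit of fractional activity versus inhibitor concentration.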
# [3] = molecular target: T2, purified wild type MGL (wt-MGLL 6H-11-313) (Homo sapiens, UniProt Q99685); assay: MGL enzyme activity assay (4MU-B cleavage), wild type MGL; assay type: biochemical; conditions: wild type MGL 5 nM, 4MU-B 10 μM, 37° C.; read-out: MGL wild type inh IC50
# T2 construct: purified wild type MGL (wt-MGLL 6H-11-313)
# T2 sequence (Q99685 1-303): T1 sequence (Q99685 1-303 L169S/L176S) with S169L, S176L
# How it was run: as §1
# [4] = tested on: CFA-induced paw radiant heat hypersensitivity; assay: CFA-induced paw radiant heat hypersensitivity; assay type: in vivo; conditions: rat, 30 mg/kg p.o., 20% HPβCD, last time point 300 min; for inhibition in vivo at 30 mg/kg: po, 5 h, group mean values, read-out: Method 1: peak % reversal; for Method 2: peak % reversal: individual animal values
# Experimental: Each rat was placed in a test chamber on a warm glass surface and allowed to acclimate for approximately 10 min. A radiant thermal stimulus (beam of light) was focused through the glass onto the plantar surface of each hind paw in turn. The thermal stimulus was automatically shut off by a photoelectric relay when the paw was moved or when the cut-off time was reached (20 sec for radiant heat at ˜5 amps). An initial (baseline) response latency to the thermal stimulus was recorded for each animal prior to the injection of complete Freund's adjuvant (CFA). Twenty-four hours following intraplantar CFA injection, the response latency of the animal to the thermal stimulus was re-evaluated and compared to the animal's baseline response time. […] Immediately following the post-CFA latency assessment, the indicated test compound or vehicle was administered orally. Post-compound treatment withdrawal latency was assessed at fixed time intervals, typically 30, 60, 120, 180, and 300 min. • The percent reversal (% R) of hypersensitivity was calculated in one of two different ways: 1) using group mean values or 2) using individual animal values. More specifically: • Method 1. For all compounds, the % R of hypersensitivity was calculated using the mean value for groups of animals at each time point according to the following formula: % reversal=[(group treatment response−group CFA response)/(group baseline response−group CFA response)]×100 • Results are given for the maximum % reversal observed for each compound at any time point tested. • Method 2. For some compounds, the % R of hypersensitivity was calculated separately for each animal according to the following formula: % reversal=[(individual treatment response−individual CFA response)/(individual baseline response−individual CFA response)]×100. • Results are given as a mean of the maximum % reversal values calculated for each individual animal.
# [5] = tested on: murine model of acute inflammation; conditions: Comelli et al., Brit J Pharmacol, 2007; cited from earlier work
IC50 [2] [nM],IC50 [3] [nM],SMILES,Rat Brain 2AG % VehCntrl (%) @1 μM [1] [%],inhibition in vivo at 30 mg/kg [4] [%],Method 2: peak % reversal [4] [%],antinociceptive effect [5]
< 5,16.7,"O=C(c1ccc(-c2cccc(C(F)(F)F)c2)cc1)N1CC(N[C@H]2CCN(C(=O)c3ccccc3)C2)C1 [Cpd 16, (3S)-1-(Phenylcarbonyl)-N-(1-{[3′-(trifluoromethyl)biphenyl-4-yl]carbonyl}azetidin-3-yl)pyrrolidin-3-amine]",220,78,87.7,
,,O=C(Nc1cccc(-c2ccccc2)c1)OC1CCCCC1 [URB602],,,,showed an antinociceptive effect
6.3,66.6,"O=C(c1ccc(-c2cccc(C(F)(F)F)c2)cc1)N1CC(N[C@H]2CN(C(=O)c3ccccc3)CC2F)C1 (single isomer, unassigned) [Cpd 63]",696,-8.2,,
18.9,16,"Cc1c(C(=O)N2CC(N[C@H]3CCN(C(=O)c4ccccc4)C3)C2)sc2ccc(-c3ccc(C(F)(F)F)cc3)cc12 [Cpd 40, (3S)-N-[1-({3-Methyl-5-[4-(trifluoromethyl)phenyl]-1-benzothiophen-2-yl}carbonyl)azetidin-3-yl]-1-(phenylcarbonyl)pyrrolidin-3-amine]",1145,15.9,17.3,
